{"source": "PubChem BioAssay (NCI)", "assay_in_all_cases": "DTP human tumour cell line panel, 48 h", "key": {"[1]": {"system": "RXF 393 renal"}, "[2]": {"system": "OVCAR-4 ovarian"}, "[3]": {"system": "EKVX NSCLC"}, "[4]": {"system": "RPMI-8226 leukemia"}, "[5]": {"system": "ACHN renal"}, "[6]": {"system": "MALME-3M melanoma"}, "[7]": {"system": "BT-549 breast"}, "[8]": {"system": "UO-31 renal"}, "[9]": {"system": "SNB-19 CNS"}, "[10]": {"system": "NCI-H460 lung"}, "[11]": {"system": "CCRF-CEM leukemia"}, "[12]": {"system": "KM12 colon"}, "[13]": {"system": "SN12C renal"}, "[14]": {"system": "SK-MEL-28 melanoma"}, "[15]": {"system": "TK-10 renal"}, "[16]": {"system": "SNB-75 CNS"}, "[17]": {"system": "UACC-257 melanoma"}, "[18]": {"system": "SK-OV-3 ovarian"}, "[19]": {"system": "COLO 205 colon"}, "[20]": {"system": "SK-MEL-5 melanoma"}, "[21]": {"system": "SF-539 CNS"}, "[22]": {"system": "NCI-H23 lung"}, "[23]": {"system": "MOLT-4 leukemia"}, "[24]": {"system": "SW-620 colon"}, "[25]": {"system": "UACC-62 melanoma"}, "[26]": {"system": "HCT-116 colon"}, "[27]": {"system": "PC-3 prostate"}, "[28]": {"system": "HOP-62 NSCLC"}, "[29]": {"system": "MDA-MB-435"}, "[30]": {"system": "NCI-H522 lung"}}, "note": "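A five-concentration, 48-hour dose response in 96-well plates underlies each endpoint, interpolated linearly between surrounding concentrations. GI50 = concentration required for 50% inhibition of growth. TGI: concentration producing complete growth inhibition.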"}
{"smiles": "CCN1CCN(c2ccc(NC(=O)Nc3ccc(-c4cc(C(=O)NC(C)C)c5ncccc5n4)cc3)cc2C(F)(F)F)CC1", "values": [{"measurement": "GI50", "setting": "[1]", "result": 654, "unit": "nM"}, {"measurement": "TGI", "setting": "[1]", "result": 1730, "unit": "nM"}, {"measurement": "GI50", "setting": "[2]", "result": 880, "unit": "nM"}, {"measurement": "TGI", "setting": "[2]", "result": 2450, "unit": "nM"}, {"measurement": "GI50", "setting": "[3]", "result": 1610, "unit": "nM"}, {"measurement": "TGI", "setting": "[3]", "result": 5.82, "unit": "µM"}, {"measurement": "GI50", "setting": "[4]", "result": 1040, "unit": "nM"}, {"measurement": "TGI", "setting": "[4]", "result": 34.5, "unit": "µM"}, {"measurement": "GI50", "setting": "[5]", "result": 1020, "unit": "nM"}, {"measurement": "TGI", "setting": "[5]", "result": 3.47, "unit": "µM"}, {"measurement": "GI50", "setting": "[6]", "result": 575, "unit": "nM"}, {"measurement": "TGI", "setting": "[6]", "result": 1050, "unit": "nM"}, {"measurement": "GI50", "setting": "[7]", "result": 4.83, "unit": "µM"}, {"measurement": "TGI", "setting": "[7]", "result": 9.57, "unit": "µM"}, {"measurement": "GI50", "setting": "[8]", "result": 2180, "unit": "nM"}, {"measurement": "TGI", "setting": "[8]", "result": 6.81, "unit": "µM"}, {"measurement": "GI50", "setting": "[9]", "result": 4.24, "unit": "µM"}, {"measurement": "TGI", "setting": "[9]", "result": 9.12, "unit": "µM"}, {"measurement": "GI50", "setting": "[10]", "result": 617, "unit": "nM"}, {"measurement": "TGI", "setting": "[10]", "result": 1180, "unit": "nM"}, {"measurement": "GI50", "setting": "[11]", "result": 1010, "unit": "nM"}, {"measurement": "TGI", "setting": "[11]", "result": 3.1, "unit": "µM"}, {"measurement": "GI50", "setting": "[12]", "result": 1010, "unit": "nM"}, {"measurement": "TGI", "setting": "[12]", "result": 2910, "unit": "nM"}, {"measurement": "GI50", "setting": "[13]", "result": 668, "unit": "nM"}, {"measurement": "TGI", "setting": "[13]", "result": 1380, "unit": "nM"}, {"measurement": "GI50", "setting": "[14]", "result": 752, "unit": "nM"}, {"measurement": "TGI", "setting": "[14]", "result": 1850, "unit": "nM"}, {"measurement": "GI50", "setting": "[15]", "result": 1350, "unit": "nM"}, {"measurement": "TGI", "setting": "[15]", "result": 4.87, "unit": "µM"}, {"measurement": "GI50", "setting": "[16]", "result": 979, "unit": "nM"}, {"measurement": "TGI", "setting": "[16]", "result": 5.14, "unit": "µM"}, {"measurement": "GI50", "setting": "[17]", "result": 3.45, "unit": "µM"}, {"measurement": "TGI", "setting": "[17]", "result": 8.11, "unit": "µM"}, {"measurement": "GI50", "setting": "[18]", "result": 5.33, "unit": "µM"}, {"measurement": "TGI", "setting": "[18]", "result": 10.8, "unit": "µM"}, {"measurement": "GI50", "setting": "[19]", "result": 931, "unit": "nM"}, {"measurement": "TGI", "setting": "[19]", "result": 2710, "unit": "nM"}, {"measurement": "GI50", "setting": "[20]", "result": 1410, "unit": "nM"}, {"measurement": "TGI", "setting": "[20]", "result": 5.28, "unit": "µM"}, {"measurement": "GI50", "setting": "[21]", "result": 534, "unit": "nM"}, {"measurement": "TGI", "setting": "[21]", "result": 1020, "unit": "nM"}, {"measurement": "GI50", "setting": "[22]", "result": 2050, "unit": "nM"}, {"measurement": "TGI", "setting": "[22]", "result": 7.27, "unit": "µM"}, {"measurement": "GI50", "setting": "[23]", "result": 1110, "unit": "nM"}, {"measurement": "TGI", "setting": "[23]", "result": 30.6, "unit": "µM"}, {"measurement": "GI50", "setting": "[24]", "result": 637, "unit": "nM"}, {"measurement": "TGI", "setting": "[24]", "result": 1260, "unit": "nM"}, {"measurement": "GI50", "setting": "[25]", "result": 3.99, "unit": "µM"}, {"measurement": "TGI", "setting": "[25]", "result": 8.28, "unit": "µM"}, {"measurement": "GI50", "setting": "[26]", "result": 638, "unit": "nM"}, {"measurement": "TGI", "setting": "[26]", "result": 1300, "unit": "nM"}, {"measurement": "GI50", "setting": "[27]", "result": 760, "unit": "nM"}, {"measurement": "TGI", "setting": "[27]", "result": 2100, "unit": "nM"}, {"measurement": "GI50", "setting": "[28]", "result": 3.83, "unit": "µM"}, {"measurement": "TGI", "setting": "[28]", "result": 8.89, "unit": "µM"}, {"measurement": "GI50", "setting": "[29]", "result": 650, "unit": "nM"}, {"measurement": "TGI", "setting": "[29]", "result": 1310, "unit": "nM"}, {"measurement": "GI50", "setting": "[30]", "result": 3.52, "unit": "µM"}]}
